ChEMBL document CHEMBL1150212, “Antitumor agents, 129. Tannins and related compounds as selective cytotoxic agents” (1992)

Columns and labels:
Assay type in all cases: functional
Conditions in all cases: read-out: ED50 (the source's name)
[1] = Cytotoxicity against human […] cells by tetrazolium salt-based colorimetric assay
A549 = test: Cytotoxicity against human A549 cells by tetrazolium salt-based colorimetric assay
TE-671 = test: Cytotoxicity against human TE671 cells by tetrazolium salt-based colorimetric assay
HCT-8 = test: Cytotoxicity against human HCT8 cells by tetrazolium salt-based colorimetric assay
KB = test: Cytotoxicity against human KB cells by tetrazolium salt-based colorimetric assay

With `O=C1O[C@H]2[C@H](OC(=O)c3cc(O)c(O)c(O)c3)[C@@H](OC(=O)c3cc(O)c(O)c4c3[C@@H]3C1=CC(=O)C(O)(O)C3(O)O4)[C@H](OC(=O)c1cc(O)c(O)c(O)c1)O[C@@H]2COC(=O)c1cc(O)c(O)c(O)c1` (stereo not given in full) [TERCHEBIN] the EC50 [1] was > 10 µg/mL, the EC50 (A549) was > 10 µg/mL and the EC50 (TE-671) was > 10 µg/mL. The EC50 (HCT-8) was > 10 µg/mL and the EC50 (KB) was > 10 µg/mL.
In the case of `O=C1OCC2OC(=O)c3cc(O)c(O)c(O)c3-c3c(O)c(O)c(O)c4c3C(=O)OC(C2OC(=O)c2cc(O)c(O)c(O)c2-c2c1cc(O)c(O)c2O)C1OC(=O)c2c-4c(O)c(O)c(O)c2C1O` (stereo not given) [VESCALAGIN], the EC50 [1] is reported as 0.58 µg/mL, the EC50 (A549) is reported as > 10 µg/mL and the EC50 (TE-671) is reported as > 10 µg/mL. For the same compound, the EC50 (HCT-8) was > 10 µg/mL and the EC50 (KB) was > 10 µg/mL.
